Results as given in patent US6893829B2, “Human leukocyte 12-lipoxygenase and its role in the pathogenesis of disease states” (City of Hope, priority 1992, dated 2005).

Key:
ERK = ERK activity in CHO-AT1a cells; type: cell-based, Chinese hamster; conditions: 12-HETE 10^−7M, peaks at 5 minutes and 3-4.5 hours
Experimental: ERK activity was evaluated by the substrate-SDS-polyacrylamide gel method described in Anal. Biochem., 183:139-143 (1989). Confluent cells in […] were made quiescent in serum-free medium and then treated with agonists for various time periods. The cells were then lysed in lysis buffer (1% NP40, 1% sodium deoxycholate, 0.1% SDS, 100 mM NaCl, 50 mM Tris, 10 mM EDTA, 1 mM EGTA, aprotinin, […], 0.1 mM PMSF and 1 mM sodium orthovanadate, pH 7.4). Lysates were centrifuged to pellet nuclei and the cell extracts ([…]) were subjected to electrophoresis on SDS-polyacrylamide gels (10%) containing myelin basic protein (0.5 mg/ml) as an ERK substrate. The SDS was then washed, followed by denaturation, renaturation and protein phosphorylation on the gel with [^32P] ATP.
(§1) It has been discovered that the administration of AII results in biphasic activation of MAP kinase (all of the MAP kinase experiments were conducted in CHO-AT1a cells—AII receptor AT1a cDNA transfected Chinese hamster ovary cells).

JNK = JNK activity in CHO-AT1a cells; type: cell-based, Chinese hamster
Experimental: The plasmid pGEX-cJun 1/79 (Dept. Pharmacol. UCSD, La Jolla) is a GST-cJun (1-79) expression vector encoding amino acids (1-79) of cJun. The GST fusion protein expression vector was transformed into E. Coli. Protein was induced with 0.1 mM IPTG and purified by affinity binding to glutathione-agarose beads. Unstimulated or stimulated cells were lysed into WCEB (25 mM HEPES, pH 7.7, 03.M Nacl, 15 mM MgCl2, 02.mM EDTA and 0.1% triton X-100). About 50 μg protein extract was incubated with GST-cJun+GSH agarose overnight at 4° C. Phosphorylation was carried out at 30° C. for 20 minutes in the presence of 20 mM HEPES, pH 7.5, 20 mM b-glycerophosphate, 10 mM p-nitrophenolphosphate, 10 mM MgCl2, 10 mM DDT, 50 μg Na3VO4, 20 μM ATP (cold) and about 0.5 μl of new gamma ^32P-ATP. After boiling with electrophoresis sample buffer, the supernatants were analyzed on 12% SDS-PAGE. JNK activity was also measured by immunoprecipitation method using an anti-JNK antibody (Parmingen Co., San Diego) and then activities were measured using 2 μg of GST-cJun (1-79) as substrate as described in Cell, 81:1147-1157 (1995).
as §1

JAK1 and JAK2 = experiment: JAK activity in CHO-AT1a cells (phosphotyrosine immunoprecipitation, JAK1/JAK2 immunoblot); type: cell-based, Chinese hamster; conditions: 12-HETE 10^−7M, 10 hours
Experimental: It has further been discovered that 12-HETE induces stimulation of JAK activity. CHO-AT1a cells were treated with 12-HETE (10^−7M) for 10 hours, immunoprecipitated with a phosphotyrosine antibody and immunoblotted using specific JAK1 and JAK2 antibodies.

RINm5F cells = experiment: DNA synthesis (3H-thymidine incorporation) in RINm5F cells; type: cell-based, rat; conditions: 24 hours, 12-HETE 10^−9M
Experimental: FIG. 11 illustrates the effects of 12-LO products on DNA synthesis in the insulin-producing rat beta cell line, RINm5F. DNA synthesis was studied using ^3H-thymidine incorporation (luCi/ml) added for the last six hours (18-24 hours of experiment). The LO products were added to the cells in complete growth media for 24 hours.
Applicants have discovered that direct addition of the 12-LO products 12-S-HETE or 12-HPETE directly decreases cellular growth as reflected by decreased ^3H thymidine incorporation or DNA synthesis in the rat pure beta cell line RIN-M5F.

[1] = system: VEGF in vascular smooth muscle cells (VSMC); experiment: VEGF protein, mRNA and secretion in VSMC (Western, Northern, EIA); type: cell-based, Porcine and human
Experimental: In addition to the work reflected in FIGS. 8-10, it has now been discovered that AII, 12-HETE and hyperglycemia (HG) increase VEGF production in vascular smooth muscle cells (VSMC). Porcine and human VSMC were cultured for at least two passages under normal glucose (NG, 5.5 mM) or under HG conditions. VEGF protein expression was determined by Western blotting and VEGF mRNA by Northern blots. HG alone increased the level of VEGF mRNA (2.8-fold) and protein (3.2-fold). […] In addition, HG increased the secretion of VEGF into the medium as measured by a specific EIA (56.2±4 ng/ml NG vs 73±5 HG, p<0.02).

[2] = system: VEGF protein in MCF-7 cells; experiment: VEGF protein expression in breast cancer cells (immunoblot); type: cell-based, human
Experimental: FIG. 8 illustrates the dose-dependent effect of platelet-derived growth factor (PDGF) on vascular endothelial growth factor (VEGF) protein (42 kD) expression in MCF-7 breast cancer cells. Nearly confluent MCF-7 cells were serum starved for 24 hours by placing in DME medium+0.4% FCS and 0.2% BSA. This medium was then freshly replaced and the cells incubated for another 24 hours with PDGF. At the end of the incubation, the cell monolayers were washed with ice-cold PBS, scraped into PBS and pelleted by centrifugation. The cell pellets were then lysed and equal amounts of protein (50 μg) subjected to electrophoresis and immunoblotting to detect VEGF using a specific antibody from Santa Cruz Biotechnology. Detection was by a chemiluminiscent technique.
FIG. 9 illustrates the effect of epidermal growth factor (EGF) and the 12-lipoxygenase product 12-HETE on VEGF protein expression in the MCF-7 breast cancer cell line MCF-7. MCF-7 cells were treated with EGF and 12-HETE for 24 hours and VEGF protein identified as described in the legend to FIG. 8.

[3] = system: beta sub-unit of the human insulin receptor; experiment: Insulin receptor phosphorylation in rat-1-fibroblasts containing the human insulin receptor; type: cell-based; conditions: 12-HETE 10^−7M
Experimental: 7. Baicalein, a selective 12-LO inhibitor, can prevent glucose-induced insulin resistance. To perform these studies, applicants cultured rat-1-fibroblasts that have been engineered to contain the human insulin receptor for ten days in high glucose (25 mM). For the last 24 hours, the cells were cultured with 10^−6M baicalein. The marked bands represent the phosphorylated beta sub-unit of the human insulin receptor (FIG. 23). As the band becomes lighter, it represents reduced insulin action. Lane 1 represents the insulin receptor phosphorylation in normal glucose (5.5 mM) vs the reduced insulin action in lane 5 (25 mM glucose).

MO binding to HAEC = experiment: Monocyte binding to human aortic endothelial cells; type: cell-based; conditions: HAEC in 5.5 mM glucose, 10^−10M; control 66±6
Experimental: The rate of atherosclerosis is accelerated in humans with diabetes mellitus (DM). Applicants recently published evidence that high glucose (HG) exposure of human aortic endothelial cells (HAEC) selectively increases monocyte (MO) but not neutrophil binding (56). HG exposure to EC can increase arachidonic acid (AA) release and lipoxygenase (LO) production formation. In the current study, applicants evaluated the role of 12- and 15-LO products in MO binding to HAEC. Culture of HAEC in HG (25 mM) for two passages increased MO binding compared to cells maintained in 5.5 mM glucose (239±30 cells/field HG vs 111±7, p<0.01). Phenidone (10^−6M), an inhibitor of the 12-LO pathway (50 percent inhibition of HG-induced binding, p<0.05). […] 12(S)-HETE added to HAEC cultured in 5.5 mM glucose increased MO binding (66±6 cells/field control vs 114±4 12-HETE 10^−10M, p<0.01). […] In summary, (1) elevated glucose increases MO binding to HAEC and this effect can be reduced by blockade of the LO pathway; (2) 12 but not 15-LO products, can increase MO binding.

[4] = system: smooth muscle cell migration; conditions: cited from earlier work
VEGF protein in AIHSMC = experiment: VEGF protein expression in immortalized human aortic smooth muscle cell line (AIHSMC); type: cell-based; conditions: five hours
Experimental: FIG. 10 illustrates the effect of a 12-lipoxygenase product 12-HPETE on VEGF protein (42 kD) expression in an immortalized human aortic smooth muscle cell line (AIHSMC). The cells were serum starved for 24 hours and then placed in fresh medium along with 12-HPETE. Cells were incubated for five hours and VEGF protein was then identified in cell lysed as described in the legend to FIG. 8.

leukocyte 12-LO = leukocyte 12-LO (Sus scrofa, UniProt P16469); conditions: reference 55; cited from earlier work
Chain of leukocyte 12-LO (P16469 whole entry): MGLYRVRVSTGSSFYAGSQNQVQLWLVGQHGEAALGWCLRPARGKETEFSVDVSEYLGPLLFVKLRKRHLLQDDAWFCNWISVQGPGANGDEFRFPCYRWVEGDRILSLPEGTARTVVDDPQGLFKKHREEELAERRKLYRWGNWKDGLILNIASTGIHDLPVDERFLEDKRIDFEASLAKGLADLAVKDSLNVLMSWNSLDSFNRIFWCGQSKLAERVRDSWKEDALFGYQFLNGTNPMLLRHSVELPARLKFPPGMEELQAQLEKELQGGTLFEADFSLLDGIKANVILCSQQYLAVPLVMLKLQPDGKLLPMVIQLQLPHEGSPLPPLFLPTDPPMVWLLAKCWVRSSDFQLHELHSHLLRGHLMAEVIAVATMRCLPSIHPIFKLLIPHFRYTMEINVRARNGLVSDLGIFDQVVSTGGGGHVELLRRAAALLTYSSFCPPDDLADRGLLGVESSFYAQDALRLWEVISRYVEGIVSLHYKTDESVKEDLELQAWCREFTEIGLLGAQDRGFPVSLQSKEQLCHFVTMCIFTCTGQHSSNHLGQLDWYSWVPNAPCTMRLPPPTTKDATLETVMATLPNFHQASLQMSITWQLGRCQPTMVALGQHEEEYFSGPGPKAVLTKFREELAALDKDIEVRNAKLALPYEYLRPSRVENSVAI

[5] = system: 12-LO product formation in PVSMC; experiment: 12-HETE in PVSMC cultured in glucosamine (RIA); type: cell-based, porcine; conditions: glucosamine 7.5 mM
Experimental: Porcine vascular smooth muscles cells (PVSMC) were cultured in the presence of glucosamine (7.5 mM) for 24 hours. New media was then added with glucosamine (7.5 mM) for 25 minutes. The cells and media above the cells were collected and 12-HETE was measured using RIA. A very large increase in 12-HETE release into the media in cells cultured in glucosamine compared to those in normal glucose (6.48±1.2 pg/ml 12-HETE release in normal glucose vs. 20.6±3.6 pg/ml released in glucosamine n=4) was observed. Furthermore, cell associated 12-HETE was higher in glucosamine treated cells (735.9±67 pg/cell incubate normal glucose vs. 1225±112 pg in glucosamine).

PVSMC = PVSMC DNA synthesis (3H thymidine incorporation); type: cell-based, porcine; conditions: 2.5 ng/ml
Experimental: (§2) The cells were cultured in DME (normal glucose) and treated for 24 hours±cytokines in medium containing 0.2% BSA and 0.4% serum. Intracellular 12-LO enzyme activity was measured by HPLC, leukocyte-type 12-LO protein expression by immunoblotting and 12-LO mRNA by a specific reverse transcriptase polymerase chain reaction (RT-PCR). […] Treatment with these cytokines (0.5-5 ng/ml) also led to an increase (1.4-2.5-fold) in 12-LO protein expression 72 kD). In addition, all three cytokines (2.5 ng/ml) could induce a significant increase in PVSMC DNA synthesis (1.280.08, 1.67±0.11 and 1.3±0.07 fold increase in ^3H thymidine incorporation with IL-1, -4, and -8 respectively, p<0.01).

[6] = system: leukocyte-type 12-LO in PVSMC; experiment: 12-LO activity, mRNA and protein in PVSMC; type: cell-based, porcine; conditions: 24 hours
Experimental: FIG. 14A illustrates the dose-dependent effect of the cytokine interleukin-1β on 12-LO mRNA expression in porcine aortic smooth muscle cells (PVSMC). Confluent PVSMC growth in normal glucose medium was serum depleted for 24 hours by placing in medium+0.2% BSA+0.4% FCS. This medium was then freshly replaced along with IL-1β and the cells incubated for a further 24 hours. At the end of the incubation, total RNA was extracted from the cells using RNA-STAT. This RNA was the subjected to reverse-transcriptase polymerase chain reaction (RT-PCR) to detect and quantitate leukocyte-type 12-LO mRNA (333 bp PCR product, upper panel) using our well established techniques. The expression of GAPDH mRNA 284 bp, lower panel) was used as an internal control for PCR and for quantitation.
FIG. 14B illustrates the effect of the cytokine IL-4 on 12-LO mRNA expression in PVSMC. The ells were treated for 24 hours with IL-4 and 12-LO mRNA quantitated as described in the legend to FIG. 14A. It is clearly seen that IL-4 also increases 12-LO mRNA expression similar to IL-1β.
FIG. 14C illustrates the effect of the cytokine IL-8 on 12-LO mRNA expression in PVSMC. The cells were treated for 24 hours with IL-8 and 12-LO mRNA quantitated as described under legend 14A.
as §2

## CCCCC/C=C\C[C@@H](O)/C=C/C=C\C/C=C\CCCC(=O)O [12-HETE, 12-Hydroxyeicosatetraenoic Acid]
ERK
  stimulation of ERK activity: biphasic stimulation
JNK; 12-HETE 10^−7M, 30 minutes
  stimulation of JNK activity, first peak: 2-3 fold
JNK; 12-HETE 10^−7M, 3 hours
  stimulation of JNK activity, second peak: 2.5-5 fold
JNK; FIG. 29
  lowest concentration stimulating JNK activity: 10^−9 M
JAK1 and JAK2
  JAK activity: increased JAK activity
RINm5F cells
  3H-thymidine incorporation (DNA synthesis): reduced
[1]
  increase in VEGF secretion (EIA): 1.4 fold
[1]; 12-HETE 10^−8M and 10^−7M, 4 hours, NG and HG
  expression of VEGF protein and mRNA: increased the expression
[2]; MCF-7, 24 hours
  VEGF protein expression: more potent than EGF
[2]; MCF-7 and MDA MB, 12-HETE 10^−7M and 10^−6M
  VEGF protein expression: increases VEGF protein expression
[3]
  basal insulin receptor phosphorylation: did not directly alter
  insulin-induced receptor phosphorylation of the beta subunit: markedly reduced
MO binding to HAEC
  MO binding: 114±4 cells/field
[4]
  lowest concentration leading to smooth muscle cell migration: 10^−12 M

## CCCCC/C=C\CC(/C=C/C=C\C/C=C\CCCC(=O)O)OO (stereo not shown) [12-HPETE, 12-Hydroperoxyeicosatetraenoic Acid]
RINm5F cells
  3H-thymidine incorporation (DNA synthesis): reduced
VEGF protein in AIHSMC
  VEGF protein (42 kD) expression: causes an increase

## C=C[C@H](O)C#CC#CC/C=C\CCCCCCC [Panaxynol]
Leukocyte 12-LO
  inhibition of leukocyte 12-LO: relatively selective inhibitor

## N[C@H]1C(O)O[C@H](CO)[C@@H](O)[C@@H]1O (stereo partly shown) [glucosamine]
[5]; normal glucose 6.48±1.2
  12-HETE release into the media: 20.6 ± 3.6 pg/mL
[5]; normal glucose 735.9±67 pg/cell incubate
  cell associated 12-HETE: 1225 ± 112 pg

## IL-8: cytokine IL-8
PVSMC
  increase in 3H thymidine incorporation: 1.3±0.07 fold
[6]; 2.5 ng/ml
  increase in 12-HETE HPLC peak (12-LO enzyme activity): 36%
[6]; FIG. 14
  12-LO mRNA expression in PVSMC: dose-dependent increase
